Where a name gives a salt, the structure may show the parent alone.
Key:
Assay type in all cases: cell-based
[1] = tested on: Pseudomonas aeruginosa XNWB 0008; assay: MIC assay of test compounds combined with imipenem (4 μg/mL); settings: imipenem 4 μg/mL fixed
Procedure, shortened: (§1)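 Checkerboard-free combination MIC: test compound titrated against a constant partner antibiotic in cation-adjusted Mueller-Hinton broth. Inocula prepared from TSA colonies at OD600 0.1-0.15, diluted 300×. Plates shaken, incubated under normal atmosphere at 35±2 °C for 16-20 h; endpoints taken following CLSI.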

[2] = tested on: Acinetobacter baumannii XNWB 0007; assay: as above; settings: imipenem 4 μg/mL fixed
Procedure, shortened: as §1

[3] = tested on: Klebsiella pneumoniae XNWB 0001; assay: as above; settings: imipenem 4 μg/mL fixed
Procedure, shortened: as §1

[4] = tested on: Klebsiella pneumoniae XNWB 0005; assay: as above; settings: imipenem 4 μg/mL fixed
Procedure, shortened: as §1

[5] = tested on: Klebsiella pneumoniae XNWB 0006; assay: as above; settings: imipenem 4 μg/mL fixed
Procedure, shortened: as §1

[6] = tested on: Klebsiella pneumoniae XNWB 0002; assay: as above; settings: imipenem 4 μg/mL fixed
Procedure, shortened: as §1

[7] = tested on: Klebsiella pneumoniae XNWB 0004; assay: as above; settings: imipenem 4 μg/mL fixed
Procedure, shortened: as §1

[8] = tested on: Klebsiella pneumoniae XNWB 0003; assay: as above; settings: imipenem 4 μg/mL fixed
Procedure, shortened: as §1

[9] = tested on: Pseudomonas aeruginosa XNWB 0008; assay: MIC assay of test compounds combined with ceftazidime (8 μg/mL); settings: ceftazidime 8 μg/mL fixed
Procedure, shortened: as §1

[10] = tested on: Acinetobacter baumannii XNWB 0007; assay: as above; settings: ceftazidime 8 μg/mL fixed
Procedure, shortened: as §1

[11] = tested on: Klebsiella pneumoniae XNWB 0001; assay: as above; settings: ceftazidime 8 μg/mL fixed
Procedure, shortened: as §1

[12] = tested on: Klebsiella pneumoniae XNWB 0005; assay: as above; settings: ceftazidime 8 μg/mL fixed
Procedure, shortened: as §1

[13] = tested on: Klebsiella pneumoniae XNWB 0006; assay: as above; settings: ceftazidime 8 μg/mL fixed
Procedure, shortened: as §1

[14] = tested on: Klebsiella pneumoniae XNWB 0002; assay: as above; settings: ceftazidime 8 μg/mL fixed
Procedure, shortened: as §1

[15] = tested on: Klebsiella pneumoniae XNWB 0004; assay: as above; settings: ceftazidime 8 μg/mL fixed
Procedure, shortened: as §1

[16] = tested on: Klebsiella pneumoniae XNWB 0003; assay: as above; settings: ceftazidime 8 μg/mL fixed
Procedure, shortened: as §1

Row | Compound | The minimum concentration of test compounds combined with imipenem (4 μg/mL) for bacteriostasis [1] | The minimum concentration of test compounds combined with imipenem (4 μg/mL) for bacteriostasis [2] | The minimum concentration of test compounds combined with imipenem (4 μg/mL) for bacteriostasis [3] | The minimum concentration of test compounds combined with imipenem (4 μg/mL) for bacteriostasis [4] | The minimum concentration of test compounds combined with imipenem (4 μg/mL) for bacteriostasis [5] | The minimum concentration of test compounds combined with imipenem (4 μg/mL) for bacteriostasis [6] | The minimum concentration of test compounds combined with imipenem (4 μg/mL) for bacteriostasis [7] | The minimum concentration of test compounds combined with imipenem (4 μg/mL) for bacteriostasis [8] | The minimum concentration of test compounds combined with ceftazidime (8 μg/mL) for bacteriostasis [9] | The minimum concentration of test compounds combined with ceftazidime (8 μg/mL) for bacteriostasis [10] | The minimum concentration of test compounds combined with ceftazidime (8 μg/mL) for bacteriostasis [11] | The minimum concentration of test compounds combined with ceftazidime (8 μg/mL) for bacteriostasis [12] | The minimum concentration of test compounds combined with ceftazidime (8 μg/mL) for bacteriostasis [13] | The minimum concentration of test compounds combined with ceftazidime (8 μg/mL) for bacteriostasis [14] | The minimum concentration of test compounds combined with ceftazidime (8 μg/mL) for bacteriostasis [15] | The minimum concentration of test compounds combined with ceftazidime (8 μg/mL) for bacteriostasis [16]
1 | O=C1N2C[C@H](N1OS(=O)(=O)O)C1(CC1)C[C@H]2c1cc(C2CCCNC2)on1 (stereo partly drawn) [Example 44, (1R,4S)-6-oxo-4-(5-(piperidin-3-yl)isoxazol-3-yl)-5,7-diazaspiro[bicyclo[3.2.1]octane-2,1′-cyclopropan]-7-yl sulfate] | A (A: <8 μg/mL) | C (C: 16-128 μg/mL) | A (A: <8 μg/mL) | A (A: <8 μg/mL) | A (A: <8 μg/mL) | A (A: <8 μg/mL) | A (A: <8 μg/mL) | A (A: <8 μg/mL) | B (B: 8-16 μg/mL) | C (C: 16-128 μg/mL) | A (A: <8 μg/mL) | A (A: <8 μg/mL) | A (A: <8 μg/mL) | A (A: <8 μg/mL) | B (B: 8-16 μg/mL) | A (A: <8 μg/mL)
2 | N=C(N)N1CCC(NCCc2cc([C@@H]3CC4(CC4)[C@@H]4CN3C(=O)N4OS(=O)(=O)O)no2)CC1 [Example 47, (1R,4S)-4-(5-(2-((1-amidinopiperidin-4-yl)amino)ethyl)isoxazol-3-yl)-6-oxo-5,7-diazaspiro[bicyclo[3.2.1]octane-2,1′-cyclopropan]-7-yl sulfate] | A (A: <8 μg/mL) | C (C: 16-128 μg/mL) | A (A: <8 μg/mL) | A (A: <8 μg/mL) | A (A: <8 μg/mL) | A (A: <8 μg/mL) | A (A: <8 μg/mL) | A (A: <8 μg/mL) | C (C: 16-128 μg/mL) | C (C: 16-128 μg/mL) | B (B: 8-16 μg/mL) | C (C: 16-128 μg/mL) | B (B: 8-16 μg/mL) | A (A: <8 μg/mL) | C (C: 16-128 μg/mL) | C (C: 16-128 μg/mL)

From patent publication US11078202B2, “β-lactamase inhibitor and use thereof” (priority 2018, dated 2021)
